Reference: patent US10189796B2, “[4-(1,3,3-trimethyl-2-oxo-3,4-dihydro-1H-quinoxalin-7-yl)phenoxy]ethyloxy compound or salt thereof” (SANTEN PHARMACEUTICAL CO., LTD., priority 2015, dated 2019)

What was measured:
[1] = tested on: IL-2 production in normal human CD4+T cell; assay: IL-2 production inhibitory action evaluation test (anti-CD3/CD28 antibody stimulation, ELISA); assay type: cell-based; conditions: anti-CD3/CD28, 24 hours, read-out: IL-2 production inhibitory ratio (% of 1 μM)
Method: In order to evaluate an action of the present compound as a GR agonist, IL-2 and IL-4 production inhibitory actions in a normal human CD4^+T cell after stimulation by an anti-CD3/CD28 antibody were investigated. For the measurement of the IL-2 and IL-4 production amounts, the ELISA method (manufactured by R&D Systems, Cat No. D2050, HS400) was used, and a procedure was carried out according to the protocol attached thereto. Hereinafter, the specific method will be described.
Dynabeads (Registered Trademark) Human T-Activator CD3/CD28 (4×10^7 beads/mL) (Dynabeads) was used, and prepared according to the protocol attached thereto.
After the test compound was dissolved in dimethylsulfoxide, the solution was diluted with an RPMI medium to prepare 400 μM of a test compound solution. The solution was diluted with a 4% dimethylsulfoxide-containing RPMI medium to prepare 40 μM of a test compound solution.
Used cells: normal peripheral blood human CD4^+T cell (human CD4^+T cell) (Lonza)
• 1) Frozen human CD4^+T cells were thawed in a warm water bath at 37° C., and added to an RPMI medium (RPMI 1640 containing 10% FBS, 100 U/mL of Penicillin, and […] of Streptomycin). • 2) The above suspension was recovered and centrifuged at 900 rpm for 10 minutes to give a cell sediment. • 3) The cell sediment was suspended in an RPMI medium and the operation of 2) was carried out. • 4) The cell sediment was adjusted to 4×10^5 cells/mL with an RPMI medium. • 5) The above suspension was cultured in a CO2 incubator (temperature: 37° C., CO2 concentration: 5%) for 1 hour or longer. (Test Method and Measurement Method) • 1) The cultured human CD4^+T cells were recovered and the cells were seeded in 96-well flat bottom culture plates at each 8.0×10^4 cells/0.2 mL/well. • 2) The test compound solution was added with each 5 μL/well. • 3) The prepared Dynabeads were added with each 2 μL/well. • 4) The sample in which 4% dimethylsulfoxide-containing RPMI medium was added with each 5 μL/well in place of each test compound solution, and the RPMI medium was added with each 2 μL/well in place of the Dynabeads was made a negative control. • 5) The sample in which 4% dimethylsulfoxide-containing RPMI medium was added with each 5 μL/well in place of each test compound solution was made a positive control. • 6) After completion of 24 hours cultivation, the supernatant was recovered and the amounts of IL-2 and IL-4 released in the supernatant was measured by using an ELISA Kit. • 7) The IL-2 and IL-4 production inhibitory ratios were calculated according to the following calculation formula. (Calculation of IL-2 and IL-4 Production Inhibitory Ratios)
The IL-2 and IL-4 production inhibitory ratios (%) were calculated by the following formula, respectively. IL-2 or IL-4 production inhibitory ratio (%)=100×{1−(IL-2 or IL-4 production amounts of each test compound solution−average value of IL-2 or IL-4 production amount of negative control group)/(average value of IL-2 or IL-4 production amount of positive control group−average value of IL-2 or IL-4 production amount of negative control group)}(%) (Test Result and Consideration)

[2] = tested on: MCP-1 production in human monocyte cell (THP-1); assay: MCP-1 production inhibitory action evaluation test (LPS stimulation, ELISA); assay type: cell-based; conditions: THP-1, LPS, 18 hours
Method: In order to evaluate an action of the present compound as a GR agonist, an MCP-1 production inhibitory action in human monocyte cell after stimulation by LPS was investigated. For the measurement of the MCP-1 production amount in the sample, the ELISA method (manufactured by R&D Systems, Cat No. DCP00) was used, and a procedure was carried out according to the protocol attached thereto. Hereinafter, the specific method will be described.
LPS solution: After LPS was dissolved in PBS(−), the solution was diluted with 10% FBS-containing RPMI 1640 to prepare an LPS solution with a 40 μg/mL concentration.
After the test compound was dissolved in dimethylsulfoxide, the solution was diluted with an RPMI medium to prepare 400 μM of a test compound solution. The solution was diluted with a 4% dimethylsulfoxide-containing RPMI 1640 medium to prepare 40 μM of a test compound solution.
Used cells: human monocyte cell (THP-1) (ATCC)
• 1) Subcultured THP-1 was recovered and centrifuged at 1,100 rpm for 5 minutes to give a cell sediment. • 2) An RPMI medium (RPMI 1640 containing 10% FBS, 100 U/mL of penicillin, 100 μg/mL of streptomycin, 55 μM of 2-Mercaptoethanol, 10 ng/mL of human EGF, and 40 μg/mL of gentamicin) was added. • 3) The above suspension was seeded in a culture flask and cultured in a CO2 incubator (temperature: 37° C., CO2 concentration: 5%). The cells continued to subculture according to this method were used for the test. (Test Method and Measurement Method) • 1) The subcultured THP-1 was recovered and the cells were each seeded at 1.9×10^5 cells/0.19 mL/well in a 96-well round bottom culture plate. • 2) The test compound solution was added with each 5 μL/well and cultured for 2 hours. • 3) LPS solution was added with each 5 μL/well. • 4) The sample to which 4% dimethylsulfoxide-containing RPMI medium was added with each 5 μL/well in place of each test compound solution, and 10% FBS-RPMI 1640 was added with each 5 μL/well in place of the LPS solution was made a negative control. • 5) The sample to 4% dimethylsulfoxide-containing RPMI medium was added with each 5 μL/well in place of each test compound solution was made a positive control. • 6) After completion of 18 hours cultivation, the supernatant was recovered and the amount of MCP-1 released in the supernatant was measured by using an ELISA Kit. • 7) The MCP-1 production inhibitory ratio was calculated according to the following calculation formula. (Calculation of MCP-1 Production Inhibitory Ratio)
MCP-1 production inhibitory ratio (%) was calculated by the following formula. […]

Structure (SMILES): CCCC(=O)Oc1ccc(-c2ccc3c(c2COc2cc(F)ccc2C)N(C)C(=O)C(C)(C)N3)c(OC)c1 [Control compound D, 7-(4-butyryloxy-2-methoxyphenyl)-8-(5-fluoro-2-methylphenoxymethyl)-1,3,3-trimethyl-3,4-dihydro-1H-quinoxalin-2-one, reference compound]
- inhibition at 1 µM [1]: < 0%

Structure (SMILES): COc1cc(OC[C@@H](O)CCO)ccc1-c1ccc2c(c1COc1cc(F)ccc1C)N(C)C(=O)C(C)(C)N2 [Compound 2-1, (S)-7-[4-(2,4-dihydroxybutyl)oxy-2-methoxyphenyl]-8-(5-fluoro-2-methyl-phenoxymethyl)-1,3,3-trimethyl-3,4-dihydro-1H-quinoxalin-2-one]
- inhibition at 1 µM [1]: 79%

Structure (SMILES): COc1ccc(-c2ccc3c(c2COc2cc(F)ccc2C)N(C)C(=O)C(C)(C)N3)c(OC)c1 [Control compound E, 7-(2,4-dimethoxyphenyl)-8-(5-fluoro-2-methyl-phenoxymethyl)-1,3,3-trimethyl-3,4-dihydro-1H-quinoxalin-2-one, reference compound]
- inhibition at 1 µM [1]: < 0%
- MCP-1 production inhibitory ratio (% of 1 μM) [2]: 40%

Structure (SMILES): COCOc1ccc(-c2ccc3c(c2COc2cc(F)ccc2C)N(C)C(=O)C(C)(C)N3)c(OC)c1 [Control compound F, 8-(5-fluoro-2-methylphenoxymethyl)-7-(2-methoxy-4-methoxymethoxyphenyl)-1,3,3-trimethyl-3,4-dihydro-1H-quinoxalin-2-one, reference compound]
- inhibition at 1 µM [1]: < 0%
- MCP-1 production inhibitory ratio (% of 1 μM) [2]: 27%

Structure (SMILES): COc1cc(OC[C@H](C)O)ccc1-c1ccc2c(c1COc1cc(F)ccc1C)N(C)C(=O)C(C)(C)N2 [Compound 1-1, (S)-8-(5-fluoro-2-methylphenoxymethyl)-7-[4-(2-hydroxypropyl)oxy-2-methoxy-phenyl]-1,3,3-trimethyl-3,4-dihydro-1H-quinoxalin-2-one]
- inhibition at 1 µM [1]: 73%

Structure (SMILES): COc1ccc(CO)cc1-c1ccc2c(c1COc1cc(F)ccc1C)N(C)C(=O)C(C)(C)N2 [Control compound B, 8-(5-fluoro-2-methylphenoxymethyl)-7-(5-hydroxymethyl-2-methoxyphenyl)-1,3,3-trimethyl-3,4-dihydro-1H-quinoxalin-2-one, reference compound]
- inhibition at 1 µM [1]: 35%

Structure (SMILES): COc1cc(OC[C@H](C)OC(=O)CN(C)C)ccc1-c1ccc2c(c1COc1cc(F)ccc1C)N(C)C(=O)C(C)(C)N2 [Compound 11-1, (S)-7-[4-[2-(N,N-dimethylaminoacetoxy)propyl]oxy-2-methoxyphenyl]-8-(5-fluoro-2-methylphenoxymethyl)-1,3,3-trimethyl-3,4-dihydro-1H-quinoxalin-2-one]
- inhibition at 1 µM [1]: 72%
- MCP-1 production inhibitory ratio (% of 1 μM) [2]: 88%

Structure (SMILES): COc1ccc(O)cc1-c1ccc2c(c1COc1cc(F)ccc1C)N(C)C(=O)C(C)(C)N2 [Control compound C, 8-(5-fluoro-2-methylphenoxymethyl)-7-(5-hydroxy-2-methoxyphenyl)-1,3,3-trimethyl-3,4-dihydro-1H-quinoxalin-2-one]
- inhibition at 1 µM [1]: 26%
- MCP-1 production inhibitory ratio (% of 1 μM) [2]: 65%
